Reference: patent publication US11795461B2, “Compositions and methods for treating beta-hemoglobinopathies” (CSL Behring Gene Therapy, Inc., priority 2017, dated 2023)

What was measured:
Type in all cases: cell-based, human
HPRT [1] = experiment: CRISPR knock-in of Pol-II-driven shRNA into CCR5 region of K562 cells, 6-TG selection, HPRT staining; conditions: for obvious cytotoxicity in K562 cells: knock-in
From the text: It has been well known that some polymerase III-dependent short-hairpin RNAs have overexpression issues and can induce acute cytotoxicity. […] This is an important concern when considering the use of RNA interference (RNAi) as a potential therapeutic approach, especially in stem cell gene therapy. Here, polymerase II was used as alternative promoter to express microRNA so as to effectuate knockdown of the expression of HPRT. A CRISPR/Cas9 gene editing approach was utilized, and a Cas9 with a single guide RNA (Cas9 RNP) targeting CCR5, together with a single-stranded DNA oligonucleotide donor (ssODN) encoding an HPRT Pol II driven shRNA, was used to enable efficient replacement of the CCR5 locus with a functional HPRT miRNA. […] For knock-in of sh211 and sh734, the obvious cytotoxicity in K562 cells was not observed.

K562 cells = experiment: in vitro 6TG selection and stability of transduced K562 cells (VCN, % GFP+); conditions: 6TG selected
Description: 4) 2×10^5 cells of control K562, 6 samples transduced at dilution factor 32 and 6 samples transduced at dilution factor 1 are reseeded in 6-well plate with 4 mL of RPMI without and with 300 nM of 6-thioguanine, respectively. 2.5×10^6 cells of 6 samples transduced at dilution factor 1 are made through mixing transduced and untransduced cells at ratio of 1:3. Two cell pellets (1×10^6 cells each) for DNA & RNA analysis for these 6 samples will be frozen down. The medium is refreshed every 3-4 days. K562 transduced with TL20cw-7SK/sh734-GFP (dilution factor at 256 and 8) will be included as positive controls.
5) Two cell pellets (1×10^6 cells each) for DNA & RNA analysis for 13 samples including control K562 will be frozen down at day 7/14/21 or even 28(MY). Copy numbers of GbG and sh734 are analyzed. The samples at day 21/28 are optional if the copy numbers of all samples are higher than 95% of expected value for day 14. […]
K562 cells were transduced with sh734 for 21 days before initiating 6TG treatment for 14 days (shaded areas). With reference to FIGS. 49A through 49G, vector copy number (VCN) was determined every two weeks from genomic DNA by multiplex RU5 qPCR and absolute quantitation from a standard curve using lentiviral vector (HIV-1-based LTR R-U5) target and human Apolipoprotein B (ApoB) reference sequences. […]

HPRT [2] = experiment: HPRT knockdown in transduced K562 cells (qRT-PCR); conditions: after 6TG treatment
Description: With reference to FIG. 50, K562 cells were transduced with TL20c-rGbGM-7SK/sh734 or TL20c GbG^M21 days before initiating 6TG treatment. RNA was isolated and qRT-PCRT was performed to determine the number of copies of sh734 relative to RNU38B and normalized to VCN (relative expression/VCN). Relative expression levels of sh734 and HPRT were determined every two weeks post-transduction. The graph illustrated sh734 plotted on the left Y-axis and the percent of HPRT knockdown related to mock transduced cells (HPRT/mock×100) and normalized to VCN plotted on the right Y axis.
K562 cells were transduced with the sh7-GFP mono-vector reporter construct or CAL-H for 21 days before initiating 6TG. RNA was isolated, and qRT-PCR performed to determine the number of copies of sh734 relative to RNU38B and normalized to VCN (relative expression/VCN). FIGS. 51A and 51B illustrates the percent HPRT knockdown relative to mock transduced cells (HPRT/mock×100) normalized to VCN is plotted on the right Y axis. […] 14 days after selection, HPRT levels became undetectable in transduced cultures. 6TG selected K562 cells continued to grow and express sh734 after 3-months in culture (data not shown). […] At day 21, K562 cultures transduced with the sh7-GFP reporter construct were 35% GFP+ and increased to 88% GFP+ cells by day 42 following 6TG treatment.

| Molecule | obvious cytotoxicity in K562 cells (HPRT [1]) | duration of sh734 expression and function in culture (K562 cells) | HPRT levels (HPRT [2]) | HPRT levels (HPRT staining) (HPRT [1]; K562 cells after three weeks of 6-TG selection, control 99%) [%] |
| --- | --- | --- | --- | --- |
| sh211: shRNA targeting an HPRT gene, SEQ ID NO: 28 (GGTTATGACCTTGATTTATACCTGACCCATATTAAATCAAGGTCATAACCTTTTT) | not observed |  |  |  |
| sh734: shRNA targeting an HPRT gene, SEQ ID NO: 30 (AGGATATGCCCTTGACTATTTGTCCGACATAGTCAAGGGCATATCCTTTTTT) | not observed | greater than 3 months | less than 10 % of untreated cells |  |
| sh211-3G: sh211 embedded in the miRNA-3G backbone, SEQ ID NO: 25; Pol-II (EF1a) driven (nucleic acid, Synthetic miRNA211-3G, Pol-II (EF1a) driven) CCGGATCAACGCCCTAGGTTTATGTTTGGATGAACTGACATACGCGTATCCGTCTTTTAAATCAAGGTCATAACCGTAGTGAAATATATATTAAACAGGTTATGACCTTGATTTAAAATACGGTAACGCGGAATTCGCAACTATTTTATCAATTTTTTGCGTCGAC |  |  |  | 12 |
